Patent US20230365592A1 (Agios Pharmaceuticals, Inc., priority 2022, published 2023)

Target: T1, human PAH with the R408W mutation (Homo sapiens, UniProt P00439, R408W)
T1 construct: expressed in transfected cells
T1 sequence (P00439 1-452 R408W): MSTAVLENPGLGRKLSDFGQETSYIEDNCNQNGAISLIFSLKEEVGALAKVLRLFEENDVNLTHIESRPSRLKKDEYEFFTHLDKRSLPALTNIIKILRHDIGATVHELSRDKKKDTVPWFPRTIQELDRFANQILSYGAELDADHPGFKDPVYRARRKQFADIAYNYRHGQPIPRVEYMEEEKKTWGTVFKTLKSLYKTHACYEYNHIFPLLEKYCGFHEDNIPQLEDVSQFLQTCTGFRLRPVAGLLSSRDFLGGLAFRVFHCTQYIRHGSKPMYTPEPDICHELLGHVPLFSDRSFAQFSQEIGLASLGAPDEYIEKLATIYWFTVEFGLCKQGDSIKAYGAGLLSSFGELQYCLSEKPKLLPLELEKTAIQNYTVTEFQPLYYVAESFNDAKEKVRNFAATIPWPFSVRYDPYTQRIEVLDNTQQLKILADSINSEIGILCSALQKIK
Experiment: Cell Based Phenylalanine Flux Assay;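 also: after compound treatment, cells received sepiapterin plus isotope-labelled Phenylalanine for 4 hours, then labelled Tyrosine in the medium was quantified, 10-point 2-fold dilution series run in duplicate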
Conditions: A375 cells expressing R408W PAH; 24 hrs with compound, then 20 µM sepiapterin and 800 µM 13C9,15N-Phenylalanine for 4 hours; 13C-Tyrosine by LC-MS; average where tested multiple times; read-out: AC50

`Cc1cccn2nc(C3c4nc[nH]c4CCN3C(=O)c3nnc(N4CCOCC4)o3)cc12` (stereo not drawn) and `Cn1cc(-c2nnc(C(=O)N3CCc4[nH]cnc4[C@@H]3c3cc4cc(F)ccn4n3)o2)cn1` (single isomer, unassigned) fall in the same range of AC50: 1000 to 5000 nM for the first, 1000 to 5000 nM for the second.

For `Cc1ccc2c(C(=O)N3CCc4[nH]cnc4C3c3cc4cccc(Cl)n4n3)cnn2c1` (stereo not drawn), the AC50 was 1000 to 5000 nM.

Same assay, conditions: A375 cells expressing human PAH R408W; 24 hrs compound incubation; 13C-Tyrosine by LC-MS; average where tested multiple times; read-out: AC50

Compared with `Cc1cccnc1-c1nnc(N2CCc3[nH]cnc3[C@@H]2c2cc3c(Cl)cccn3n2)o1` [Example 2286, (R)-2-(4-(4-chloropyrazolo[1,5-a]pyridin-2-yl)-1,4,6,7-tetrahydro-5H-imidazo[4,5-c]pyridin-5-yl)-5-(3-methylpyridin-2-yl)-1,3,4-oxadiazole], `Fc1cccn2nc([C@H]3c4nc[nH]c4CCN3c3ccccc3)cc12` [Example 2312, (R)-4-(4-fluoropyrazolo[1,5-a]pyridin-2-yl)-5-phenyl-4,5,6,7-tetrahydro-1H-imidazo[4,5-c]pyridine] is lower in AC50: over 5000 nM for the first, 1000 to 5000 nM for the second.

`O=C(c1nnc(-c2ccccn2)s1)N1CCc2[nH]cnc2[C@@H]1c1cc2ccccn2n1` [Example 1967, (R)-(4-(pyrazolo[1,5-a]pyridin-2-yl)-1,4,6,7-tetrahydro-5H-imidazo[4,5-c]pyridin-5-yl)(5-(pyridin-2-yl)-1,3,4-thiadiazol-2-yl)methanone] and `O=C(c1nnc(C2CC2)o1)N1CCc2[nH]cnc2[C@@H]1c1cc2ccc(F)cn2n1` [Example 2405, (R)-(5-cyclopropyl-1,3,4-oxadiazol-2-yl)(4-(6-fluoropyrazolo[1,5-a]pyridin-2-yl)-6,7-dihydro-1H-imidazo[4,5-c]pyridin-5(4H)-yl)methanone] cannot be ordered by AC50: over 5000 nM for the first, over 5000 nM for the second.

With `Cn1cc(-c2ccc3c(C(=O)N4CCc5[nH]cnc5[C@H]4c4cc5cccc(C(F)(F)F)n5n4)cnn3c2)cn1` [Example 2438, (S)-(6-(1-methyl-1H-pyrazol-4-yl)pyrazolo[1,5-a]pyridin-3-yl)(4-(7-(trifluoromethyl)pyrazolo[1,5-a]pyridin-2-yl)-6,7-dihydro-1H-imidazo[4,5-c]pyridin-5(4H)-yl)methanone] the AC50 was 1000 to 5000 nM.

Same assay, conditions: A375 cells expressing human R408W PAH; 24 hrs compound incubation; 13C-Tyrosine by LC-MS; average where tested multiple times; read-out: AC50

First: Cc1cccc(-c2nnc(C(=O)N3CCc4[nH]cnc4[C@H]3c3cc4cccc(C(F)F)n4n3)o2)n1 [Example 1594, (S)-(4-(7-(difluoromethyl)pyrazolo[1,5-a]pyridin-2-yl)-6,7-dihydro-1H-imidazo[4,5-c]pyridin-5(4H)-yl)(5-(6-methylpyridin-2-yl)-1,3,4-oxadiazol-2-yl)methanone]
Second: Cc1cnn(C)c1-c1nnc(C(=O)N2CCc3[nH]cnc3[C@@H]2c2cc3cccc(C(F)F)n3n2)o1 [Example 1585, (R)-(4-(7-(difluoromethyl)pyrazolo[1,5-a]pyridin-2-yl)-6,7-dihydro-1H-imidazo[4,5-c]pyridin-5(4H)-yl)(5-(1,4-dimethyl-1H-pyrazol-5-yl)-1,3,4-oxadiazol-2-yl)methanone]
The AC50 of the first is lower: under 500 nM for the first, over 5000 nM for the second.

First: FC(F)c1nnc(N2CCc3[nH]cnc3[C@H]2c2cc3c(Cl)cccn3n2)o1 [Example 1739, (S)-2-(4-(4-chloropyrazolo[1,5-a]pyridin-2-yl)-6,7-dihydro-1H-imidazo[4,5-c]pyridin-5(4H)-yl)-5-(difluoromethyl)-1,3,4-oxadiazole]
Second: CC(C)c1nnc(C(=O)N2CCc3[nH]cnc3[C@@H]2c2cc3c(Cl)cccn3n2)o1 [Example 1485, (R)-(4-(4-chloropyrazolo[1,5-a]pyridin-2-yl)-6,7-dihydro-1H-imidazo[4,5-c]pyridin-5(4H)-yl)(5-isopropyl-1,3,4-oxadiazol-2-yl)methanone]
The AC50 of the first is lower: under 500 nM for the first, 1000 to 5000 nM for the second.

Compared with `O=C(c1nnc(-c2cnccn2)o1)N1CCc2[nH]cnc2[C@H]1c1cc2c(OC(F)(F)F)cccn2n1` [Example 1680, (S)-(5-(pyrazin-2-yl)-1,3,4-oxadiazol-2-yl)(4-(4-(trifluoromethoxy)pyrazolo[1,5-a]pyridin-2-yl)-6,7-dihydro-1H-imidazo[4,5-c]pyridin-5(4H)-yl)methanone], `O=C(c1nnc(-c2cnn(C(F)(F)F)c2)o1)N1CCc2[nH]cnc2[C@H]1c1cc2c(Cl)cccn2n1` [Example 1504, (S)-(4-(4-chloropyrazolo[1,5-a]pyridin-2-yl)-6,7-dihydro-1H-imidazo[4,5-c]pyridin-5(4H)-yl)(5-(1-(trifluoromethyl)-1H-pyrazol-4-yl)-1,3,4-oxadiazol-2-yl)methanone] is lower in AC50: 500 to 1000 nM for the first, under 500 nM for the second.

First: CC(C)(O)c1nc(C(F)(F)F)c(C(=O)N2CCc3[nH]cnc3[C@@H]2c2cc3ccccn3n2)o1 [Example 629, (R)-(2-(2-hydroxypropan-2-yl)-4-(trifluoromethyl)oxazol-5-yl)(4-(pyrazolo[1,5-a]pyridin-2-yl)-6,7-dihydro-1H-imidazo[4,5-c]pyridin-5(4H)-yl)methanone]
Second: Cc1nc(C(C)(C)F)oc1C(=O)N1CCc2[nH]cnc2[C@@H]1c1cc2ccccn2n1 [Example 1251, (R)-(2-(2-fluoropropan-2-yl)-4-methyloxazol-5-yl)(4-(pyrazolo[1,5-a]pyridin-2-yl)-6,7-dihydro-1H-imidazo[4,5-c]pyridin-5(4H)-yl)methanone]
The AC50 of the first is higher: 1000 to 5000 nM for the first, 500 to 1000 nM for the second.

`Cc1ncccc1-c1nnc(C(=O)N2CCc3[nH]cnc3[C@H]2c2cc3cccc(Cl)n3n2)o1` [Example 1334, (S)-(4-(7-chloropyrazolo[1,5-a]pyridin-2-yl)-6,7-dihydro-1H-imidazo[4,5-c]pyridin-5(4H)-yl)(5-(2-methylpyridin-3-yl)-1,3,4-oxadiazol-2-yl)methanone] and `O=C(c1nnc(-c2ccccn2)o1)N1CCc2[nH]cnc2[C@H]1c1cc2cccc(C(F)(F)F)n2n1` [Example 1028, (S)-(5-(pyridin-2-yl)-1,3,4-oxadiazol-2-yl)(4-(7-(trifluoromethyl)pyrazolo[1,5-a]pyridin-2-yl)-6,7-dihydro-1H-imidazo[4,5-c]pyridin-5(4H)-yl)methanone] cannot be ordered by AC50: under 500 nM for the first, under 500 nM for the second.

First: O=C(c1nnc(C2CC2)o1)N1CCc2[nH]cnc2[C@H]1c1cc2c(OC(F)F)cccn2n1 [Example 1654, (S)-(5-cyclopropyl-1,3,4-oxadiazol-2-yl)(4-(4-(difluoromethoxy)pyrazolo[1,5-a]pyridin-2-yl)-6,7-dihydro-1H-imidazo[4,5-c]pyridin-5(4H)-yl)methanone]
Second: O=C(c1nnc(-c2cnn(C(F)F)c2)o1)N1CCc2[nH]cnc2[C@@H]1c1cc2ccccn2n1 [Example 651, (R)-(5-(1-(difluoromethyl)-1H-pyrazol-4-yl)-1,3,4-oxadiazol-2-yl)(4-(pyrazolo[1,5-a]pyridin-2-yl)-6,7-dihydro-1H-imidazo[4,5-c]pyridin-5(4H)-yl)methanone]
The AC50 of the first is lower: 500 to 1000 nM for the first, 1000 to 5000 nM for the second.

First: O=C(c1cnco1)N1CCc2[nH]cnc2[C@H]1c1cc2c(Cl)cccn2n1 [Example 766, (S)-(4-(4-chloropyrazolo[1,5-a]pyridin-2-yl)-6,7-dihydro-1H-imidazo[4,5-c]pyridin-5(4H)-yl)(oxazol-5-yl)methanone]
Second: O=C(c1nnc(-c2ccn(C(F)(F)F)n2)o1)N1CCc2[nH]cnc2[C@@H]1c1cc2ccccn2n1 [Example 1507, (R)-(4-(pyrazolo[1,5-a]pyridin-2-yl)-6,7-dihydro-1H-imidazo[4,5-c]pyridin-5(4H)-yl)(5-(1-(trifluoromethyl)-1H-pyrazol-3-yl)-1,3,4-oxadiazol-2-yl)methanone]
The AC50 of the first is lower: under 500 nM for the first, over 5000 nM for the second.

Compared with `CC(C)(F)c1nnc(C(=O)N2CCc3[nH]cnc3[C@H]2c2cc3cccc(C(F)(F)F)n3n2)o1` [Example 1161, (S)-(5-(2-fluoropropan-2-yl)-1,3,4-oxadiazol-2-yl)(4-(7-(trifluoromethyl)pyrazolo[1,5-a]pyridin-2-yl)-6,7-dihydro-1H-imidazo[4,5-c]pyridin-5(4H)-yl)methanone], `Cc1cccc2cc([C@H]3c4nc[nH]c4CCN3C(=O)c3nnc(C(C)C)o3)nn12` [Example 1491, (R)-(5-isopropyl-1,3,4-oxadiazol-2-yl)(4-(7-methylpyrazolo[1,5-a]pyridin-2-yl)-6,7-dihydro-1H-imidazo[4,5-c]pyridin-5(4H)-yl)methanone] is higher in AC50: 500 to 1000 nM for the first, 1000 to 5000 nM for the second.

Compared with `Cc1ccn2nc([C@@H]3c4nc[nH]c4CCN3C(=O)c3nc(C(F)F)nn3C)cc2c1` [Example 1049, (S)-(3-(difluoromethyl)-1-methyl-1H-1,2,4-triazol-5-yl)(4-(5-methylpyrazolo[1,5-a]pyridin-2-yl)-6,7-dihydro-1H-imidazo[4,5-c]pyridin-5(4H)-yl)methanone], `CC(C)(F)c1nc(C(F)F)c(C(=O)N2CCc3[nH]cnc3[C@H]2c2cc3cccc(Cl)n3n2)o1` [Example 1232, (S)-(4-(7-chloropyrazolo[1,5-a]pyridin-2-yl)-6,7-dihydro-1H-imidazo[4,5-c]pyridin-5(4H)-yl)(4-(difluoromethyl)-2-(2-fluoropropan-2-yl)oxazol-5-yl)methanone] is lower in AC50: 500 to 1000 nM for the first, under 500 nM for the second.

`Cn1ccc(-c2ccc3c(C(=O)N4CCc5[nH]cnc5[C@H]4c4cc5cccc(C(F)(F)F)n5n4)cnn3c2)n1` [Example 1632, (S)-(6-(1-methyl-1H-pyrazol-3-yl)pyrazolo[1,5-a]pyridin-3-yl)(4-(7-(trifluoromethyl)pyrazolo[1,5-a]pyridin-2-yl)-6,7-dihydro-1H-imidazo[4,5-c]pyridin-5(4H)-yl)methanone] showed an AC50 of 500 to 1000 nM.
